Assay results taken from ChEMBL document CHEMBL1135166, “Synthesis of triazole-Tethered pyrrolidine libraries: novel ECE inhibitors” (Bioorg Med Chem Lett, 2002).

Biological target: T1, Endothelin-converting enzyme 1 (Homo sapiens, UniProt P42892)
T1 sequence (P42892 whole entry): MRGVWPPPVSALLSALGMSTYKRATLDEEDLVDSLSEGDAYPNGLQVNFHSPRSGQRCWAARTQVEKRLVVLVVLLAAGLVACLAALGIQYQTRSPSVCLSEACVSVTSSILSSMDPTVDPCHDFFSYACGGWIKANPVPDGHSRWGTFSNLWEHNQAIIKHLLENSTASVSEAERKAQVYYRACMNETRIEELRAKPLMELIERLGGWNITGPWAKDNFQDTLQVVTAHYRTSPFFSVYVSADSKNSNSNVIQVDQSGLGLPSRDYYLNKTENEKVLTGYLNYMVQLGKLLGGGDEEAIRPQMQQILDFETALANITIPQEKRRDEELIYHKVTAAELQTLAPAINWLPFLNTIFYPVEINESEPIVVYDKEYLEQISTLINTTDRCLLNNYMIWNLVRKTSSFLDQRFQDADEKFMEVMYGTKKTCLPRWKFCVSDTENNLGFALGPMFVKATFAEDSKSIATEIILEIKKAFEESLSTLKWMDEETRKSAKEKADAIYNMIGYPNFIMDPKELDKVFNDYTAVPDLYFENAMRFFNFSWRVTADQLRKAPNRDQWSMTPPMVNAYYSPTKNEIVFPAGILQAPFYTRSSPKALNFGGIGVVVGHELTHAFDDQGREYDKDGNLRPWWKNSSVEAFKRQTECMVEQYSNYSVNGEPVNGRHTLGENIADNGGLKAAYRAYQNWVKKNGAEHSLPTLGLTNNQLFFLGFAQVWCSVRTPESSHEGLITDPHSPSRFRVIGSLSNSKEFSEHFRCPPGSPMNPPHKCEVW
Test: (§1) Tested for inhibitory concentration against human Endothelin-converting enzyme 1 at 10 uM

SMILES	IC50 [nM]
CSc1nnc([C@@H]2C[C@@H](S)CN2C(=O)Nc2ccc(F)cc2)n1-c1ccccc1	17700
O=S(=O)(c1ccc2ccccc2c1)N1C[C@H](S)C[C@H]1c1nnc(SCC2CC2)n1-c1ccccc1	700
CSc1nnc([C@@H]2C[C@@H](S)CN2S(=O)(=O)c2ccc3ccccc3c2)n1Cc1ccc(F)cc1	150
CCCSc1nnc([C@@H]2C[C@@H](S)CN2S(=O)(=O)c2ccc3ccccc3c2)n1-c1ccccc1	280
CC(C)CSc1nnc([C@@H]2C[C@@H](S)CN2S(=O)(=O)c2ccc3ccccc3c2)n1-c1ccccc1	720
CSc1nnc([C@@H]2C[C@@H](S)CN2S(=O)(=O)c2ccc3ccccc3c2)n1-c1c(F)c(F)cc(F)c1F	250
CCCCOC(=O)N1C[C@H](S)C[C@H]1c1nnc(SC)n1-c1ccccc1	2700

Continued, values first:

IC50 [nM]	SMILES
1300	CSc1nnc([C@@H]2C[C@@H](S)CN2S(=O)(=O)c2ccc(C(F)(F)F)cc2)n1-c1ccccc1
1200	CSc1nnc([C@@H]2C[C@@H](S)CN2S(=O)(=O)c2ccc3ccccc3c2)n1-c1ccc(F)c(Cl)c1
500	CSc1nnc([C@@H]2C[C@@H](S)CN2S(=O)(=O)c2ccc3ccccc3c2)n1-c1ccccc1
1200	CSc1nnc([C@@H]2C[C@@H](S)CN2S(=O)(=O)c2ccc(Cl)cc2)n1-c1ccccc1
8950	CSc1nnc([C@@H]2C[C@@H](S)CN2S(=O)(=O)c2ccc(F)cc2)n1-c1ccccc1
1200	CCCc1ccc(S(=O)(=O)N2C[C@H](S)C[C@H]2c2nnc(SC)n2-c2ccccc2)cc1
360	CSc1nnc([C@@H]2C[C@@H](S)CN2S(=O)(=O)c2ccc3ccccc3c2)n1-c1ccc(C(F)(F)F)cc1
4400	CSc1nnc([C@@H]2C[C@@H](S)CN2S(=O)(=O)c2ccc(C)cc2)n1-c1ccccc1
15500	CSc1nnc([C@@H]2C[C@@H](S)CN2S(C)(=O)=O)n1-c1ccccc1

Biological target: T2, Endothelin-converting enzyme 1 (Homo sapiens) (UniProt P42892)
T2 sequence (whole entry): T1 sequence (P42892 whole entry)
Test: as §1

inhibition [%]	SMILES
28	CSc1nnc([C@@H]2C[C@@H](S)CN2S(=O)(=O)N(C)C)n1-c1ccccc1
43	CSc1nnc([C@@H]2C[C@@H](S)CN2S(=O)(=O)c2ccc3ccccc3c2)n1C
